Experimental data from patent US20150209379A1, “TREATMENT OF PROSTATE CANCER AND HEMATOLOGIC NEOPLASMS” (THOMAS JEFFERSON UNIVERSITY, priority 2012, published 2015).

Tests used:
Assay type in all cases: cell-based
[1] = system: KCL22R imatinib-resistant human chronic myeloid leukemia cells; test: Cell viability, MTS assay, KCL22R imatinib-resistant chronic myeloid leukemia cells; conditions: 72 h, 3.1, 6.3, 12.5, 25 and 50 μM, vs control compound C5
Experimental: Exponentially growing KCL22R imatinib-resistant human chronic myeloid leukemia cells were treated with Compound 1, Compound 2 or the control compound C5 for 72 h at 3.1, 6.3. 12.5, 25 and 50 μM concentrations. The cell viability was assessed by MTS (3-(4,5-dimethylthiazolyl-2)-2,5-diphenyl-tetrazolium bromide) metabolic activity assay (CellTiter 96® AQueous Assay kit).
(§1) Exponentially growing CWR22Rv1 prostate cancer cells, K562 leukemia cells and imatinib-sensitive KCL22S and imatinib-resistant KCL22R chronic myeloid leukemia cells were treated with NBPP or the control compound C5 for 72 h at 3.1, 6.3. 12.5, 25 and 50 μM concentrations. The cell viability was assessed by MTS (3-(4,5-dimethylthiazolyl-2)-2,5-diphenyl-tetrazolium bromide) metabolic activity assay (CellTiter 96® AQueous Assay kit).

[2] = system: KCL22 human chronic myeloid leukemia cells; test: Cell viability, MTS assay, KCL22 (imatinib-sensitive) chronic myeloid leukemia cells; conditions: KCL22 (KCL22S), 72 h, 3.1, 6.3, 12.5, 25 and 50 μM, vs control compound C5
Experimental: Exponentially growing KCL22 human chronic myeloid leukemia cells were treated with Compound 1, Compound 2 or the control compound C5 for 72 h at 3.1, 6.3. 12.5, 25 and 50 μM concentrations. The cell viability was assessed by MTS (3-(4,5-dimethylthiazolyl-2)-2,5-diphenyl-tetrazolium bromide) metabolic activity assay (CellTiter 96® AQueous Assay kit).
as §1

[3] = molecular target: T1, Stat5b (Homo sapiens, UniProt P51692); test: Stat5b transcriptional activity, beta-casein promoter luciferase reporter gene assay in PC-3 cells; conditions: varying concentration
T1 construct: expressed in transfected cells; host or cells: PC-3 human prostate cancer cells
T1 sequence (P51692 1-787): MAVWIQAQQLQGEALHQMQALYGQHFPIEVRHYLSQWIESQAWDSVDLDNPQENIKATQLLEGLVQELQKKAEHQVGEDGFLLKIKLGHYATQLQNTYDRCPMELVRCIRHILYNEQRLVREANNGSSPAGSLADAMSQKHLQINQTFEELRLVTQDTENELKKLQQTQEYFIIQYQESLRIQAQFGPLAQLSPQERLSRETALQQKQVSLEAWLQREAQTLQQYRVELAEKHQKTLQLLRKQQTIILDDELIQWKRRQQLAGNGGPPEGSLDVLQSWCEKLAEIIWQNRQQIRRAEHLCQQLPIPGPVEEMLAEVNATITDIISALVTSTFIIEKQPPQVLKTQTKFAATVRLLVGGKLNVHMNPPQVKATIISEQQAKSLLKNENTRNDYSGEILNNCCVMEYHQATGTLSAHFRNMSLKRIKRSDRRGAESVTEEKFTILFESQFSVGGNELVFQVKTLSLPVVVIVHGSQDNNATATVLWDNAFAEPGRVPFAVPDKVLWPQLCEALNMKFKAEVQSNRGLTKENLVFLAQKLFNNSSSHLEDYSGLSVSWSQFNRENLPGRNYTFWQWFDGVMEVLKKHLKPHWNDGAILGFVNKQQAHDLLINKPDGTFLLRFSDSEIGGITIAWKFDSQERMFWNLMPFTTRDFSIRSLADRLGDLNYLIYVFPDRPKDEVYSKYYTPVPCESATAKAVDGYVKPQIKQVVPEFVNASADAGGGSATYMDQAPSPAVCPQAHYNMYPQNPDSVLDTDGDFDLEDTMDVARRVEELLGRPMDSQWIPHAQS
Experimental: Cells of the human prostate cell line PC-3 were plated into 96-well plate at the density of 2×10^5 per well. After 24 hours of plating, cells were transiently co-transfected using FuGENE6 (Roche) with 0.25 μg of each of pStat5a or pStat5b, pPrlR (prolactin receptor) plasmids, 0.5 μg of pBeta-casein-luc and 0.025 μg of pRL-TK (Renilla luciferase) plasmids as an internal control. After another 24 hours of transfection, the cells were starved in serum-free medium for 8 hours, pretreated with N^6-benzyladenosine (“N6BA”), or the control compound C5, for 1 hour, and then stimulated with 10 nM human prolactin (hPrl) in the serum-free medium for additional 16 hours. The lysates were assayed for firefly and Renilla luciferase activities using the Dual-Luciferase reporter assay system (Promega). Three independent experiments were carried out in triplicate. The firefly luciferase activity was normalized to the Renilla luciferase activity of the same sample, and the mean was calculated from the parallels. From the mean values of each independent run, the overall mean and its standard deviation (S.D.) were calculated.

Compound: OC[C@H]1O[C@@H](n2cnc3c(N4CCc5ccccc5C4)ncnc32)[C@H](O)[C@@H]1O [Compound 1, (2R,3R,4S,5R)-2-(6-(3,4-Dihydroisoquinolin-2(1H)-yl)-9H-purin-9-yl)-5-(hydroxymethyl)tetrahydrofuran-3,4-diol]
- number of viable cells [1]: decreased the number of viable leukemic cancer cells compared to the control compound
- number of viable cells [2]: decreased the number of viable leukemic cancer cells compared to the control compound
- effect on transcriptional activity of Stat5b [3]: inhibited Stat5a and Stat5b transcriptional activity in a concentration-dependent manner

Compound: OC[C@H]1O[C@@H](n2cnc3c(NNc4ccccc4)ncnc32)[C@H](O)[C@@H]1O [Compound 2, (2R,3S,4R,5R)-2-(hydroxymethyl)-5-(6-(2-phenylhydrazinyl)-9H-purin-9-yl)tetrahydrofuran-3,4-diol]
- number of viable cells [1]: decreased the number of viable leukemic cancer cells compared to the control compound
- number of viable cells [2]: decreased the number of viable leukemic cancer cells compared to the control compound
- effect on transcriptional activity of Stat5b [3]: inhibited Stat5a and Stat5b transcriptional activity in a concentration-dependent manner

Compound: OC[C@H]1O[C@@H](n2cnc3c(NCc4ccccc4)ncnc32)[C@H](O)[C@@H]1O [Compound N6BA, N^6-benzyladenosine]
- effect on transcriptional activity of Stat5b [3]: inhibited Stat5 transcriptional activity in a concentration-dependent manner

Compound: OC[C@H]1O[C@@H](n2ccc3c(NCc4ccccc4)ncnc32)[C@H](O)[C@@H]1O [NBPP, N-(phenylmethyl)-7-β-D-ribofuranosyl-7H-pyrrolo[2,3-d]pyrimidin-4-amine]
- number of viable cells [1]: decreased the number of viable KCL22R cells
- number of viable cells [2]: decreased the number of viable KCL22S cells
